What all share (assay): biochemical
Holding throughout (type): binding

Assay [1] concerns the target T1, panel of 442 kinases (Homo sapiens, UniProt P00533, G719C).
T1 construct: purchased Ambit Biosciences (scanMAXX KINOMEscan)
The conditions noted are these: EGFR(G719C); for remaining activity at 1 µM: read-out: % of control at 1 µM.

Assay [2] concerns the target T2, panel of 442 kinases (Homo sapiens, UniProt P23443).
T2 construct: purchased Ambit Biosciences (scanMAXX KINOMEscan)
As to conditions: kinase S6K1; for remaining activity at 1 µM: read-out: S6K1 (% of control at 1 µM).

Assay [3] addresses T3, panel of 442 kinases (Homo sapiens, UniProt P24941).
T3 construct: purchased Ambit Biosciences (scanMAXX KINOMEscan)
The conditions noted are these: CDK2; for remaining activity at 1 µM: read-out: % of control at 1 µM.

The target in assay [4] is T4, panel of 442 kinases (Homo sapiens, UniProt P27361).
T4 construct: purchased Ambit Biosciences (scanMAXX KINOMEscan)
T4 sequence (P27361 whole entry): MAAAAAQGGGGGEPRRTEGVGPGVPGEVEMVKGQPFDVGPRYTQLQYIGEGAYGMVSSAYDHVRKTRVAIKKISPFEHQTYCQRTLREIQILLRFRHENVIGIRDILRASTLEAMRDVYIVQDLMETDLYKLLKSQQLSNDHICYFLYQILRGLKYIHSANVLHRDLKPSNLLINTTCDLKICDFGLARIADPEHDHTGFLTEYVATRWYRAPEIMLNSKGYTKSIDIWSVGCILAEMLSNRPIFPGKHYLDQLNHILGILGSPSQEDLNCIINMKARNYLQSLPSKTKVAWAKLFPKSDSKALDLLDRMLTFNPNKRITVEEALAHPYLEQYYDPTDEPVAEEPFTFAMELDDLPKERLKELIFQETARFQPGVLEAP
The conditions noted are these: ERK1; for remaining activity at 1 µM: read-out: % of control at 1 µM.

In assay [5] the target is T5, panel of 442 kinases (Homo sapiens, UniProt P51451).
T5 construct: purchased Ambit Biosciences (scanMAXX KINOMEscan)
T5 sequence (P51451 whole entry): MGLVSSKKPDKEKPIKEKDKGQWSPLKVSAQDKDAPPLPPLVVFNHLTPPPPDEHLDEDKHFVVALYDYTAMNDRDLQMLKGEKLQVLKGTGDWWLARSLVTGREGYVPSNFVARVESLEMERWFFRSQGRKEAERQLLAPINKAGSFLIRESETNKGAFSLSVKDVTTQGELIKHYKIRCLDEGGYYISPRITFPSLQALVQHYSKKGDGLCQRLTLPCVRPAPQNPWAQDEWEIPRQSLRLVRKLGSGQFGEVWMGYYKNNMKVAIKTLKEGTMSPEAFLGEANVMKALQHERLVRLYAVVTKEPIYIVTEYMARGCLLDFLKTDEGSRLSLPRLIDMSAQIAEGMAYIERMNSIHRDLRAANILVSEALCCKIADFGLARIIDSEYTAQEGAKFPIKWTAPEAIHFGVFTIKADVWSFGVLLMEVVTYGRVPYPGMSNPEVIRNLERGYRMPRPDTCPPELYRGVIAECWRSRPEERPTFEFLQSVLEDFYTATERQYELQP
As to conditions: BLK; for remaining activity at 1 µM: read-out: % of control at 1 µM.

Assay [6] concerns the target T6, panel of 442 kinases (Homo sapiens, UniProt P53350).
T6 construct: purchased Ambit Biosciences (scanMAXX KINOMEscan)
The conditions noted are these: kinase PLK1; for remaining activity at 1 µM: read-out: PLK1 (% of control at 1 µM).

In assay [7] the target is T7, panel of 442 kinases (Homo sapiens, UniProt Q07002).
T7 construct: purchased Ambit Biosciences (scanMAXX KINOMEscan)
T7 sequence (Q07002 whole entry): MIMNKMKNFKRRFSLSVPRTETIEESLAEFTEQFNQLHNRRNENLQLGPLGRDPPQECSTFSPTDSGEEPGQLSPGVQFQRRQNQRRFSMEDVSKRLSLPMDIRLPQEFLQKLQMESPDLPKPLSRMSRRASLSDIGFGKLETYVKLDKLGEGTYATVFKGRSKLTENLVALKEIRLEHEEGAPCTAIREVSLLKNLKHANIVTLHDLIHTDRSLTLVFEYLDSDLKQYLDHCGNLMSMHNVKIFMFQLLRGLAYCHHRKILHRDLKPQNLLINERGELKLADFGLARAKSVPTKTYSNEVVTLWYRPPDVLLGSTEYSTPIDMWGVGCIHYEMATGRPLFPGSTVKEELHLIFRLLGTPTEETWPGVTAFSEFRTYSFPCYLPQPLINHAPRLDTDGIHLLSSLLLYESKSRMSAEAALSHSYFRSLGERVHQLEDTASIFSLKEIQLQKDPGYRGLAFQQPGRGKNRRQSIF
As to conditions: kinase PCTK3; for remaining activity at 1 µM: read-out: % of control at 1 µM.

Assay [8] addresses T8, panel of 442 kinases (Homo sapiens, UniProt Q13131).
T8 construct: purchased Ambit Biosciences (scanMAXX KINOMEscan)
As to conditions: AMPK-alpha1; for remaining activity at 1 µM: read-out: % of control at 1 µM.

The target of assay [9] is T9, panel of 442 kinases (Homo sapiens, UniProt Q13705).
T9 construct: purchased Ambit Biosciences (scanMAXX KINOMEscan)
T9 sequence (Q13705 19-512): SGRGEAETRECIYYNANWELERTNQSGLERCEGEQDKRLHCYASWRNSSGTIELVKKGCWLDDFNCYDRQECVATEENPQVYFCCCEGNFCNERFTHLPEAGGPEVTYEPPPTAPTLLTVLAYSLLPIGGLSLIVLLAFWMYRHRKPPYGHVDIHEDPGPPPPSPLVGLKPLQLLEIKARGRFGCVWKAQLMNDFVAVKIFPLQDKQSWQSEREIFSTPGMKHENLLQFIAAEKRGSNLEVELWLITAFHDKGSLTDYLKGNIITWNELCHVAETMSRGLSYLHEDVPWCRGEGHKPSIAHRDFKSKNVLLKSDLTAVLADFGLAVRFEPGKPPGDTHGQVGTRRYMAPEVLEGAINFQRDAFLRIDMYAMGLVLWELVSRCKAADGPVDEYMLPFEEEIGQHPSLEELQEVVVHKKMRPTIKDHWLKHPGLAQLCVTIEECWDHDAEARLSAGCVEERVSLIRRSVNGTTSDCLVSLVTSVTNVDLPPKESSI
The conditions noted are these: ACVR2B; for remaining activity at 1 µM: read-out: % of control at 1 µM.

Assay [10] concerns the target T10, panel of 442 kinases (Homo sapiens, UniProt Q8IW41).
T10 construct: purchased Ambit Biosciences (scanMAXX KINOMEscan)
T10 sequence (Q8IW41 1-473): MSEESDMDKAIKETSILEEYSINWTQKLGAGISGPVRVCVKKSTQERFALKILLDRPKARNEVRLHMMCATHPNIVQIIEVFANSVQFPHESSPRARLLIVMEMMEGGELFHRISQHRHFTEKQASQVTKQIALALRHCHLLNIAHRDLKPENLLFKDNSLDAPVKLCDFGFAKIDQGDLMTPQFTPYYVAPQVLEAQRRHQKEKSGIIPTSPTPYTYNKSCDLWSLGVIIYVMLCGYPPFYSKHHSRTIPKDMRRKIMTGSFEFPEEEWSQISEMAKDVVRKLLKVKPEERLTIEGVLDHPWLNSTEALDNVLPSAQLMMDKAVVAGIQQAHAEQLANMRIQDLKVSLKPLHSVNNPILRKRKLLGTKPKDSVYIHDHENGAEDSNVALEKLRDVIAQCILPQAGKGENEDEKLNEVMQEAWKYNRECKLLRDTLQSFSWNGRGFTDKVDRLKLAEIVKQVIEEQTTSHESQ
As to conditions: kinase MAPKAPK5; for remaining activity at 1 µM: read-out: % of control at 1 µM.

The target in assay [11] is T11, panel of 442 kinases (Homo sapiens, UniProt Q8TBX8).
T11 construct: purchased Ambit Biosciences (scanMAXX KINOMEscan)
T11 sequence (Q8TBX8 1-421): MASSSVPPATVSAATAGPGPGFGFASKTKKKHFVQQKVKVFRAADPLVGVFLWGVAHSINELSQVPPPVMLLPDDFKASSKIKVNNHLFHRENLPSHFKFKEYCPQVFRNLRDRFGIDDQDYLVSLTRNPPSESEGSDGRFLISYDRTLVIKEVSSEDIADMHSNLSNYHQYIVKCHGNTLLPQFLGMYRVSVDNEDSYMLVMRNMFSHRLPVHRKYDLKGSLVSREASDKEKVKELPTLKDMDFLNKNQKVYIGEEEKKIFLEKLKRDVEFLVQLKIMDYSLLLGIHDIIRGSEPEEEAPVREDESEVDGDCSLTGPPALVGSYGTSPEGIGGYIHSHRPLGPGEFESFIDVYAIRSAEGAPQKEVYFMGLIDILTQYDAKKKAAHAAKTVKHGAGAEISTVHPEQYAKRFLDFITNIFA
The conditions noted are these: kinase PIP5K2C; for remaining activity at 1 µM: read-out: % of control at 1 µM.

Assay [12] concerns the target T12, panel of 442 kinases (Homo sapiens, UniProt O00329).
T12 construct: purchased Ambit Biosciences (scanMAXX KINOMEscan)
T12 sequence (O00329 1-1044): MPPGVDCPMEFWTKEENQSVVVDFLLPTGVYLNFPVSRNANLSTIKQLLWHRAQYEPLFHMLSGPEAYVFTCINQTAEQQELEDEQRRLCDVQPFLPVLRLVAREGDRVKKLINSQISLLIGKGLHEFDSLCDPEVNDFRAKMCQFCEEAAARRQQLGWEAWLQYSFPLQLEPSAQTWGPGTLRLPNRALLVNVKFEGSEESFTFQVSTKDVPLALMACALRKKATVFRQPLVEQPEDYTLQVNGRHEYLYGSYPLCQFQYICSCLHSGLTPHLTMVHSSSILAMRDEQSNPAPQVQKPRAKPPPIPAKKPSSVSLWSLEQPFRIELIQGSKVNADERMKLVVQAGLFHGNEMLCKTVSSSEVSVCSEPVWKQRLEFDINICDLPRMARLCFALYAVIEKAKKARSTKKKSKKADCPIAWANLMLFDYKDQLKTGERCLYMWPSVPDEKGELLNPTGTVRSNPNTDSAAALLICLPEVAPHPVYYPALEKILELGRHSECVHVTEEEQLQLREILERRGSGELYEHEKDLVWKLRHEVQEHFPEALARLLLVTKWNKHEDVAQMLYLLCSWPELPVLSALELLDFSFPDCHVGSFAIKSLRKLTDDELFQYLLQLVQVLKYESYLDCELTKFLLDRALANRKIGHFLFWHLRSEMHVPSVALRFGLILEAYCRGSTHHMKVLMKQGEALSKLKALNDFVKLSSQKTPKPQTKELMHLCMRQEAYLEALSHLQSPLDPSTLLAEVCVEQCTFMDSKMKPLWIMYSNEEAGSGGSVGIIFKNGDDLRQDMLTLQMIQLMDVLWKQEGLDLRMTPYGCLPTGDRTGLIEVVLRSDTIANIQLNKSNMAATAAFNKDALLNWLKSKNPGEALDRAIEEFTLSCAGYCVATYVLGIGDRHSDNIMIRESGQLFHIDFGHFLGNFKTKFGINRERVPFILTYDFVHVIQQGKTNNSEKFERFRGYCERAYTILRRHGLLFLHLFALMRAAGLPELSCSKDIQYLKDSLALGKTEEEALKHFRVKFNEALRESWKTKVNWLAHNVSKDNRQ
The conditions noted are these: kinase PIK3CD; 1 µM; read-out: % of control at 1 µM.

The mark [13] stands for this setting: 10 µM, read-out: % of control at 10 µM.

T2 sequence (P23443 whole entry): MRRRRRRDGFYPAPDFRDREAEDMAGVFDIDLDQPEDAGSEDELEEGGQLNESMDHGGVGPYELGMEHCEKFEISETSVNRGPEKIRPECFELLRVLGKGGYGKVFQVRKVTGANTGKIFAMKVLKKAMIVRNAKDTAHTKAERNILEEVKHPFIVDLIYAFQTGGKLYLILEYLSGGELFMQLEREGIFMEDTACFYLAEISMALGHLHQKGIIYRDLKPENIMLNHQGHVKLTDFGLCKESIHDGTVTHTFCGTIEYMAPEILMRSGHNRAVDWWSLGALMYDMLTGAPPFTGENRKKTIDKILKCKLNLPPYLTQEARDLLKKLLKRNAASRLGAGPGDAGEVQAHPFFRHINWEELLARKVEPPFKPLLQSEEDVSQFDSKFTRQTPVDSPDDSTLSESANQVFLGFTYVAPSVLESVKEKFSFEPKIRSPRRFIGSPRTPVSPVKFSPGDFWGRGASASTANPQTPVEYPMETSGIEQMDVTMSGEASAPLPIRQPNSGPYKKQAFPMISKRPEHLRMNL
T6 sequence (P53350 whole entry): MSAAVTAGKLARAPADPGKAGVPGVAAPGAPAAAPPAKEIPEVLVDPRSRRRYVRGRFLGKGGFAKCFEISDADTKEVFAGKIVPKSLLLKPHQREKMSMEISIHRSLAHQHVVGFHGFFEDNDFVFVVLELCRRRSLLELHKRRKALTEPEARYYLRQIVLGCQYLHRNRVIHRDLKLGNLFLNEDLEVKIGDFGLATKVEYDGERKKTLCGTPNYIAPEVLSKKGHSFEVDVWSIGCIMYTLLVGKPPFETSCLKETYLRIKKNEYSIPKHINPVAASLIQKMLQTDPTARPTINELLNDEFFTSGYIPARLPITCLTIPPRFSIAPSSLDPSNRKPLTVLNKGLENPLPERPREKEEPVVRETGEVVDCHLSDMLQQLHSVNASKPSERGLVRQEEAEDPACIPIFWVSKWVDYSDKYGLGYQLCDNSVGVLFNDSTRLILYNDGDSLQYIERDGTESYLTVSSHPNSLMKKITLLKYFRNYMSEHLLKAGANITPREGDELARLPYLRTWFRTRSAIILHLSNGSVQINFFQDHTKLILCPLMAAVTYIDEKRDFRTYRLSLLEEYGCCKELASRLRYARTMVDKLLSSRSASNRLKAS
T8 sequence (Q13131 whole entry): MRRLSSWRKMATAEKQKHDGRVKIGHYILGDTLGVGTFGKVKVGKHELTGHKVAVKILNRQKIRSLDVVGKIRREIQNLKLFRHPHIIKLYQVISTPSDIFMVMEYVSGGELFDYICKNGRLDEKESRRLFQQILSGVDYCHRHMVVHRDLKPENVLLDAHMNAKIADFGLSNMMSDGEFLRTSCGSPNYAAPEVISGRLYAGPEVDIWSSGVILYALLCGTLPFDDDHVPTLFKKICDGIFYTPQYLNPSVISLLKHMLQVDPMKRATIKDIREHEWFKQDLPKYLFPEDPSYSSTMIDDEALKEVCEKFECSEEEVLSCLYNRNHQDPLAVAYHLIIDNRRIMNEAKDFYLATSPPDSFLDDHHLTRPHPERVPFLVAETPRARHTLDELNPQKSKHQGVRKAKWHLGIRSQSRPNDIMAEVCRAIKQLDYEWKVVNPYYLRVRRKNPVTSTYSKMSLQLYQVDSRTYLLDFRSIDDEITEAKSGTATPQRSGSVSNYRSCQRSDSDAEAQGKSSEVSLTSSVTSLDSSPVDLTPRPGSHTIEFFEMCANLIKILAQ
T1 sequence (P00533 25-1210 G719C): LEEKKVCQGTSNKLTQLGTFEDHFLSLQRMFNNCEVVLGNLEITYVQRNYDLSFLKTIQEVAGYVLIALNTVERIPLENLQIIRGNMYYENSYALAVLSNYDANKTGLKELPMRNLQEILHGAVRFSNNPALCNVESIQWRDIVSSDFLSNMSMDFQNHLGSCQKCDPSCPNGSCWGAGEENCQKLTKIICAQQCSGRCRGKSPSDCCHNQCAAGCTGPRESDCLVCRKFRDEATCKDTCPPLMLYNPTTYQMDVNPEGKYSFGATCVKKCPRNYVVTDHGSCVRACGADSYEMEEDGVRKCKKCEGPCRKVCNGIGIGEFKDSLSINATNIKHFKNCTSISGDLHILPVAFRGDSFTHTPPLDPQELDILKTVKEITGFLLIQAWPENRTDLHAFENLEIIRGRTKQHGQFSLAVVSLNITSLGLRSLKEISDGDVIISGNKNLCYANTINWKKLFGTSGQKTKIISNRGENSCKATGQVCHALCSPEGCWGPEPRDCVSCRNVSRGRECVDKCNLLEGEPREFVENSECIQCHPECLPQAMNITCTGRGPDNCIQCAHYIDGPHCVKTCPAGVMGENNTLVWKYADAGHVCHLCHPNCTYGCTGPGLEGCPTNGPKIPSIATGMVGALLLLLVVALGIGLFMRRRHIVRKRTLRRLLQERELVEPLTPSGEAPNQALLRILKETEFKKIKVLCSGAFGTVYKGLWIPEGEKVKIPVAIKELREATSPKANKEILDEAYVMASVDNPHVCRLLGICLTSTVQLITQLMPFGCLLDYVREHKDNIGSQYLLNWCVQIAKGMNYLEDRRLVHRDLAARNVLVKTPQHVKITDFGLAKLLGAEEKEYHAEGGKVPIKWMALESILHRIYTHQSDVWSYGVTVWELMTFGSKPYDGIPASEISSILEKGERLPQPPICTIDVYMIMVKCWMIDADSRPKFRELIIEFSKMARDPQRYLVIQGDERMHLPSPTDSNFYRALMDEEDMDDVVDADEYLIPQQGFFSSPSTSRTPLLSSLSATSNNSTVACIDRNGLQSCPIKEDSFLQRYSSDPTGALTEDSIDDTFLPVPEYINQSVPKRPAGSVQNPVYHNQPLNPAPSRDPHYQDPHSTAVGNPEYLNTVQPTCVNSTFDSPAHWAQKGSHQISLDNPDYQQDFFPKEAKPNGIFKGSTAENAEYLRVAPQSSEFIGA

For `Nc1cc(C(F)(F)F)c(-c2cc(N3CCOCC3)nc(N3CCOCC3)n2)cn1` [Buparlisib], the remaining activity at 1 µM on panel of 442 kinases [1] is 84%; on panel of 442 kinases [2], 88%; on panel of 442 kinases [3], 84%; at panel of 442 kinases [4], 92%; on panel of 442 kinases [5], 93%; at panel of 442 kinases [6], 65%. For the same molecule, the remaining activity at 1 µM at panel of 442 kinases [7] is 100%; on panel of 442 kinases [8], 96%; on panel of 442 kinases [9], 100%; at panel of 442 kinases [10], 100%; at panel of 442 kinases [11] it was 71%. The remaining activity at 10 µM came to 83% at panel of 442 kinases [1] (setting [13]); 99% at panel of 442 kinases [2] (10 µM, read-out: S6K1 (% of control at 10 µM)); 100% on panel of 442 kinases [3] (setting [13]); 100% on panel of 442 kinases [4] (setting [13]); 100% on panel of 442 kinases [5] (setting [13]); 84% on panel of 442 kinases [6] (10 µM, read-out: PLK1 (% of control at 10 µM)). The remaining activity at 10 µM amounted to 87% at panel of 442 kinases [7] (setting [13]); 100% at panel of 442 kinases [8] (setting [13]); 100% on panel of 442 kinases [9] (setting [13]); 100% on panel of 442 kinases [10] (setting [13]); 46% on panel of 442 kinases [11] (setting [13]).
On to `Cn1c(=O)n(-c2ccc(C(C)(C)C#N)cc2)c2c3cc(-c4cnc5ccccc5c4)ccc3ncc21` [Dactolisib, 2-methyl-2-[4-(3-methyl-2-oxo-8-quinolin-3-yl-2,3-dihydroimidazo[4,5-c]quinolin-1-yl)-phenyl] propionitrile], for which the remaining activity at 1 µM on panel of 442 kinases [12] came to 12%; on panel of 442 kinases [3] it was 78%; at panel of 442 kinases [4], 97%; at panel of 442 kinases [5] it was 97%; at panel of 442 kinases [6], 93%; on panel of 442 kinases [7] it was 94%. Moreover, the remaining activity at 1 µM at panel of 442 kinases [8] is 97%; at panel of 442 kinases [9], 85%; on panel of 442 kinases [10] it was 100%; at panel of 442 kinases [11], 89%.
Turning to `FC(F)c1nc2ccccc2n1-c1nc(N2CCOCC2)nc(N2CCOCC2)n1` [ZSTK474, 2-(difluoromethyl)-1-[4,6-di(4-morpholinyl)-1,3,5-triazin-2-yl]-1H-benzimidazole], the remaining activity at 1 µM is 0% at panel of 442 kinases [12]; 97% at panel of 442 kinases [1]; 91% at panel of 442 kinases [2]; 74% at panel of 442 kinases [3]; 100% at panel of 442 kinases [4]; 100% on panel of 442 kinases [5]. Also, the remaining activity at 1 µM was 62% at panel of 442 kinases [6]; 100% at panel of 442 kinases [7]; 100% at panel of 442 kinases [8]; 89% on panel of 442 kinases [9]; 100% at panel of 442 kinases [10]; 100% at panel of 442 kinases [11].
For the molecule `COc1ncc(-c2ccc3nccc(-c4ccnnc4)c3c2)cc1NS(=O)(=O)c1ccc(F)cc1F` [Omipalisib], the remaining activity at 1 µM at panel of 442 kinases [12] was found to be 0%; on panel of 442 kinases [1] it was 100%; on panel of 442 kinases [2], 100%; on panel of 442 kinases [3] it was 100%; on panel of 442 kinases [4], 100%; on panel of 442 kinases [5], 94%. In addition, the remaining activity at 1 µM on panel of 442 kinases [6] stood at 97%; at panel of 442 kinases [7], 100%; on panel of 442 kinases [8], 100%; on panel of 442 kinases [9], 100%; at panel of 442 kinases [10], 100%; on panel of 442 kinases [11] it was 56%.

Values taken from publication PMC5564600 (Oncotarget, 2017).
